The values that follow come from US4933347A, “Diamidines and bis(imidazolines) for the treatment of and prophylaxis against pneumocystis carinii pneumonia” (University of North Carolina at Chapel Hill, priority 1988, dated 1990).

Molecules are shown by their SMILES.

Series [1] can be described thus: Solubility (insoluble, not tested in animals). It is filed as physicochemical.
Series [2] has as its system Pneumocystis carinii. Particulars: in vivo; cited from earlier work.
The subject of series [3] is Pneumocystis carinii. The experiment in a line: Treatment of Pneumocystis carinii pneumonia in Sprague-Dawley rats (extent of disease by histologic score). It is filed as in vivo, male Sprague-Dawley rats. The note with it: for Extent of Disease by Histologic Score: number of animals with score 0.5 / Extent of Disease by Histologic Score: number of animals with score 1 / Extent of Disease by Histologic Score: number of animals with score 2 / Extent of Disease by Histologic Score: number of animals with score 3 / Extent of Disease by Histologic Score: number of animals with score 4: 14 days; for Extent of Disease by Histologic Score: number of animals with score 0.5 / Extent of disease by histologic score (combined): number of animals in scoring group 0.5: 0.5 = <10 cysts found per 2 sections; for Extent of Disease by Histologic Score: number of animals with score 1 / Extent of disease by histologic score (combined): number of animals in scoring group 1: 1 = scattered cysts, <5% of lung involved; for Extent of Disease by Histologic Score: number of animals with score 2 / Extent of disease by histologic score (combined): number of animals in scoring group 2: 2 = scattered cysts; for Extent of Disease by Histologic Score: number of animals with score 2: 5-10% lung involved or small foci of infection; for Extent of Disease by Histologic Score: number of animals with score 3 / Extent of disease by histologic score (combined): number of animals in scoring group 3: 3 = scattered cysts; for Extent of Disease by Histologic Score: number of animals with score 3: 10-50% of lung involved with some intense areas of infection; for Extent of Disease by Histologic Score: number of animals with score 4: 4 = >50% of lung involved with many intense areas of focal infection; for Extent of disease by histologic score (combined): number of animals in scoring group 0.5 / Extent of disease by histologic score (combined): number of animals in scoring group 1 / Extent of disease by histologic score (combined): number of animals in scoring group 2 / Extent of disease by histologic score (combined): number of animals in scoring group 3 / Extent of disease by histologic score (combined): number of animals in scoring group 4: Table XII composite; for Extent of disease by histologic score (combined): number of animals in scoring group 2: 5-10% of lung involved; for Extent of disease by histologic score (combined): number of animals in scoring group 3: 10-50% of lung involved; for Extent of disease by histologic score (combined): number of animals in scoring group 4: 4 = >50% of lung involved; for Efficacy in treating Pneumocystis carinii (words): 2.5 mg/kg.

The nature of series [4]: Toxicity of amidines in rats (standard laboratory procedure). It is filed as in vivo. Here is the method: Compounds having the structure represented by Formula I were synthesized in accordance with the appropriate procedures discussed previously. The reaction schemes shown in Charts I-III specifically identify the methodology used to synthesize the compounds of the respective examples. The compounds which were synthesized are shown in Table IA and the elemental analysis and melting points of the compounds are shown in Table IB. Most of the compounds were tested for toxicity in rats using standard laboratory procedure and the results of that toxicity testing are shown in Table XII. The compounds of Examples 31, 32, and 34 were not synthesized but may be synthesized in the general manner discussed previously.

Setting [5] is: dose as in value, else not given in Table XIII (10 mg/kg test dose).

As for `N=C(N)c1ccc(OCCOc2ccc(C(=N)N)cc2)cc1` [Example 1], in series [1], the “Solubility (not tested in animals - insoluble)” value is reported as “insoluble”.
As for `N=C(N)c1ccc(OCCCOc2ccc(C(=N)N)cc2Br)c(Br)c1` [dibromopropamidine], the “Known effectiveness against Pneumocystis carinii pneumonia” value with Pneumocystis carinii [2] is “some effectiveness against PCP”.
On to `N=C(N)c1ccc(OCCOc2ccc(C(=N)N)cc2[N+](=O)[O-])c([N+](=O)[O-])c1` [Example 2], for which, in series [1], the “Solubility (not tested in animals - insoluble)” value was “insoluble”.
Same read-out and setting: to `N=C(N)c1ccc(OCCCCCOc2ccc(C(=N)N)cc2Br)c(Br)c1` [Example 16] belongs “insoluble”.
For `N=C(N)c1ccc(NCCCCCNc2ccc(C(=N)N)cc2[N+](=O)[O-])c([N+](=O)[O-])c1` [Example 18], in the series on Pneumocystis carinii [3] (5 mg/kg i.v. daily), the “Extent of Disease by Histologic Score: number of animals with score 0.5” value stood at 1 animals, the “Extent of Disease by Histologic Score: number of animals with score 1” value was 3 animals, the “Extent of Disease by Histologic Score: number of animals with score 2” value is listed as 0 animals and the “Extent of Disease by Histologic Score: number of animals with score 3” value turned out to be 2 animals. Besides, the “Extent of Disease by Histologic Score: number of animals with score 4” value in the series on Pneumocystis carinii [3] (5 mg/kg i.v. daily) is 1 animals. In the series with Pneumocystis carinii [3] (tested at 5 mg/kg), the “Extent of disease by histologic score (combined): number of animals in scoring group 0.5” value came to 1 animals, the “Extent of disease by histologic score (combined): number of animals in scoring group 1” value is recorded as 3 animals, the “Extent of disease by histologic score (combined): number of animals in scoring group 2” value worked out at 0 animals and the “Extent of disease by histologic score (combined): number of animals in scoring group 3” value is given as 2 animals. Moreover, in the series on Pneumocystis carinii [3] (tested at 5 mg/kg), the “Extent of disease by histologic score (combined): number of animals in scoring group 4” value was found to be 1 animals. Moreover, in the series on Pneumocystis carinii [3] (compound at 5 mg/kg), the “Efficacy in treating PCP compared with control” value is “better than the control” and the “Efficacy in treating PCP compared with pentamidine” value is recorded as “less effective than pentamidine”. In addition, in series [4] (setting [5]), the “Toxicity of amidines: Effect” value is listed as “Acute toxicity - death at 10 mg/kg”.
In the case of `N=C(N)c1ccc(OCCCCOc2ccc(C(=N)N)cc2[N+](=O)[O-])c([N+](=O)[O-])c1` [Example 38], in the series on Pneumocystis carinii [3] (2.5 mg/kg i.v. daily), the “Extent of Disease by Histologic Score: number of animals with score 0.5” value came to 0 animals, the “Extent of Disease by Histologic Score: number of animals with score 1” value is on record as 0 animals, the “Extent of Disease by Histologic Score: number of animals with score 2” value stood at 3 animals and the “Extent of Disease by Histologic Score: number of animals with score 3” value is listed as 1 animals. For the same compound, in the series on Pneumocystis carinii [3] (2.5 mg/kg i.v. daily), the “Extent of Disease by Histologic Score: number of animals with score 4” value is reported as 4 animals. For the same compound, in the series with Pneumocystis carinii [3] (tested at 2.5 mg/kg), the “Extent of disease by histologic score (combined): number of animals in scoring group 0.5” value stood at 0 animals, the “Extent of disease by histologic score (combined): number of animals in scoring group 1” value amounted to 0 animals, the “Extent of disease by histologic score (combined): number of animals in scoring group 2” value stood at 3 animals and the “Extent of disease by histologic score (combined): number of animals in scoring group 3” value is reported as 1 animals. Besides, the “Extent of disease by histologic score (combined): number of animals in scoring group 4” value in the series with Pneumocystis carinii [3] (tested at 2.5 mg/kg) is on record as 4 animals. Further, in series [4] (setting [5]), the “Toxicity of amidines: Effect” value was “Acute toxicity at 10 mg/kg and 5 mg/kg”. Also, the “Toxicity of amidines: Effect” value in series [4] (tested at 2.5 mg/kg) was “no toxicity”.
Turning to `COc1cc(C2=NCCN2)ccc1OCCCOc1ccc(C2=NCCN2)cc1OC` [Example 44], the “Efficacy in treating Pneumocystis carinii (words)” value in the series on Pneumocystis carinii [3] is “very effective in treating Pneumocystis carinii”. In the series with Pneumocystis carinii [3] (2.5 mg/kg i.v. daily), the “Extent of Disease by Histologic Score: number of animals with score 0.5” value was 6 animals, the “Extent of Disease by Histologic Score: number of animals with score 1” value amounted to 2 animals, the “Extent of Disease by Histologic Score: number of animals with score 2” value was found to be 0 animals and the “Extent of Disease by Histologic Score: number of animals with score 3” value is on record as 0 animals. Besides, the “Extent of Disease by Histologic Score: number of animals with score 4” value in the series with Pneumocystis carinii [3] (2.5 mg/kg i.v. daily) turned out to be 0 animals. Moreover, the “Efficacy in treating Pneumocystis carinii (words)” value in the series on Pneumocystis carinii [3] (listed as Compound 44) was “very good at one fourth the dose level of pentamidine”. In addition, in the series with Pneumocystis carinii [3] (tested at 2.5 mg/kg), the “Extent of disease by histologic score (combined): number of animals in scoring group 0.5” value worked out at 6 animals, the “Extent of disease by histologic score (combined): number of animals in scoring group 1” value was found to be 2 animals, the “Extent of disease by histologic score (combined): number of animals in scoring group 2” value was found to be 0 animals and the “Extent of disease by histologic score (combined): number of animals in scoring group 3” value stood at 0 animals. For the same compound, the “Extent of disease by histologic score (combined): number of animals in scoring group 4” value in the series with Pneumocystis carinii [3] (tested at 2.5 mg/kg) turned out to be 0 animals. In addition, the “Efficacy in treating PCP compared with pentamidine” value in the series on Pneumocystis carinii [3] (compound at 2.5 mg/kg) is on record as “much better than pentamidine at only one fourth the dose”. Moreover, the “Toxicity of amidines: Effect” value in series [4] (rat, in vivo, 2.5 mg/kg) is “no toxicity”.
